According to ChEMBL document CHEMBL1201862, “PubChem BioAssay data set” (2004):
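The compound was tested at five concentrations on cells cultured in 96-well plates, with a 48-hour exposure period. GI50: concentration for 50% inhibition of growth.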 Activity calls are given as the source filed them. Rule as the data show it: active = GI50 up to about 1.1 µM and inactive = higher.

Key:
Assay in all cases: growth of human tumour cells (NCI), 48 h
SF-268 = system: SF-268
SNB-75 = system: SNB-75
SK-MEL-28 = system: SK-MEL-28
HCT-116 = system: HCT-116
KM12 = system: KM12
CCRF-CEM = system: CCRF-CEM
CAKI-1 = system: CAKI-1
OVCAR-4 = system: OVCAR-4
LXFL 529 = system: LXFL 529
SR = system: SR
TK-10 = system: TK-10
DLD-1 = system: DLD-1
M14 = system: M14
NCI-H460 = system: NCI-H460
UACC-62 = system: UACC-62
A498 = system: A498
UACC-257 = system: UACC-257
SNB-19 = system: SNB-19
RXF 393 = system: RXF 393
786-0 = system: 786-0
A549 = system: A549
SN12C = system: SN12C
HCT-15 = system: HCT-15
ACHN = system: ACHN
K562 = system: K562
HOP-62 = system: HOP-62
UO-31 = system: UO-31
NCI-H226 = system: NCI-H226
OVCAR-3 = system: OVCAR-3
RPMI-8226 = system: RPMI-8226
HOP-18 = system: HOP-18
Malme-3M = system: Malme-3M
MOLT-4 = system: MOLT-4
IGROV-1 = system: IGROV-1
COLO 205 = system: COLO 205
SK-MEL-2 = system: SK-MEL-2
DMS-114 = system: DMS-114
SNB-78 = system: SNB-78
SK-OV-3 = system: SK-OV-3
DMS-273 = system: DMS-273
M19-MEL = system: M19-MEL
HCC 2998 = system: HCC 2998
HL-60 = system: HL-60
KM-20L2 = system: KM-20L2
U-251 = system: U-251
SF-539 = system: SF-539
SW-620 = system: SW-620
OVCAR-8 = system: OVCAR-8
NCI-H522 = system: NCI-H522
SK-MEL-5 = system: SK-MEL-5

## C=CCC(C)(C(=O)NCCC)C(=O)c1ccccc1O (stereo not given)
SF-268
  GI50: > 100 µM (inactive)
SNB-75
  GI50: > 100 µM (inactive)
SK-MEL-28
  GI50: > 100 µM (inactive)
HCT-116
  GI50: > 100 µM (inactive)
KM12
  GI50: > 100 µM (inactive)
CCRF-CEM
  GI50: > 100 µM (inactive)
CAKI-1
  GI50: > 100 µM (inactive)
OVCAR-4
  GI50: > 100 µM (inactive)
LXFL 529
  GI50: > 100 µM (inactive)
SR
  GI50: > 100 µM (inactive)
TK-10
  GI50: > 100 µM (inactive)
DLD-1
  GI50: > 100 µM (inactive)
M14
  GI50: > 100 µM (inactive)
NCI-H460
  GI50: > 100 µM (inactive)
UACC-62
  GI50: > 100 µM (inactive)
A498
  GI50: > 100 µM (inactive)
UACC-257
  GI50: > 100 µM (inactive)
SNB-19
  GI50: > 100 µM (inactive)
RXF 393
  GI50: > 100 µM (inactive)
786-0
  GI50: > 100 µM (inactive)
A549
  GI50: > 100 µM (inactive)
SN12C
  GI50: > 100 µM (inactive)
HCT-15
  GI50: > 100 µM
ACHN
  GI50: > 100 µM (inactive)
K562
  GI50: > 100 µM (inactive)
HOP-62
  GI50: > 100 µM (inactive)
UO-31
  GI50: > 100 µM (inactive)
NCI-H226
  GI50: > 100 µM (inactive)
OVCAR-3
  GI50: > 100 µM (inactive)
RPMI-8226
  GI50: > 100 µM (inactive)
HOP-18
  GI50: > 100 µM (inactive)
Malme-3M
  GI50: > 100 µM (inactive)
MOLT-4
  GI50: > 100 µM (inactive)
IGROV-1
  GI50: > 100 µM (inactive)
COLO 205
  GI50: > 100 µM (inactive)
SK-MEL-2
  GI50: > 100 µM (inactive)
DMS-114
  GI50: > 100 µM (inactive)
SNB-78
  GI50: > 100 µM (inactive)
SK-OV-3
  GI50: > 100 µM (inactive)
DMS-273
  GI50: > 100 µM (inactive)
M19-MEL
  GI50: > 100 µM (inactive)
HCC 2998
  GI50: > 100 µM (inactive)
HL-60
  GI50: > 100 µM (inactive)
KM-20L2
  GI50: > 100 µM (inactive)
U-251
  GI50: > 100 µM (inactive)
SF-539
  GI50: > 100 µM (inactive)
SW-620
  GI50: > 100 µM (inactive)
OVCAR-8
  GI50: > 100 µM (inactive)
NCI-H522
  GI50: > 100 µM (inactive)
SK-MEL-5
  GI50: > 100 µM (inactive)
